According to patent US20260274892A1, “MACROCYCLIC BROAD SPECTRUM ANTIBIOTICS” (RQx Pharmaceuticals, Inc., priority 2017, published 2026):

Each molecule was assayed on Escherichia coli ATCC 25922 (assay: Minimum inhibitory concentration (MIC), CLSI broth micro-dilution, E. coli). Details: Escherichia coli, ATCC25922, 22 h, Table 6, cation adjusted Mueller Hinton Broth + 0.002% Tween-80, 35° C.
Assay type: cell-based
Protocol: In vitro antimicrobial activity of each compound was determined by measuring minimal inhibitor concentrations (MICs) using the broth micro-dilution technique as approved by the Clinical and Laboratory Standards Institute (CLSI) (Methods for Dilution Antimicrobial Susceptibility Tests for Bacteria that Grow Aerobically; Approved Standard-Eighth Edition. CLSI document M07-A8. Wayne, PA: Clinical and Laboratroy Standards; 2009). Antibacterial activity was measure against two strains of bacteria: a Methicillin Resistant Staphylococcus aureus strain USA 200, (S. aureus) and Escherichia coli ATCC 25922 (E. coli), a clinically relevant Gram-negative strain. Cells were inoculated onto plates of Trypyticase Soy Agar or Luria Agar respectively and grown at 35° C. for 20 hours. Inocula suspensions were prepared by scraping cells into 1 mL of testing media (cation adjusted Mueller Hinton Broth supplemented with 0.002% v/v Tween-80) and diluting to a final OD600nm of 0.01.
Test compounds were prepared in DMSO at a concentration of 10 mg/mL. In protocol 1, the compound stocks were diluted into testing media at a concentration of 64 µg/ml and serial 2-fold dilutions were made in the same media, in 96-well U bottom microtiter dishes, for a total of 10 compound concentrations. In protocol 2, the compound stocks were diluted into testing media at a concentration of 4 µg/mL and serial 2-fold dilutions were made in the same media, in 96-well U bottom microtiter dishes, for a total of 10 compound concentrations. In protocol 3, compound stocks were diluted into testing media at a concentration of 0.5 μg/mL, with serial 2-fold dilutions conducted as described above. In protocol 4, compound stocks were diluted into testing media at a concentration of […], with serial 2-fold dilutions conducted as described above. Inocula suspensions were added to the 2-fold serial dilutions of test compounds to a final density of GD OD600nm of 0.0005 and incubated at 35° C. for 22 hours.

Structure (SMILES)	MIC
CCCCOc1c(F)c(F)c(-c2cc(C)c(C(=O)N[C@@H](CCN)C(=O)N(C)[C@@H]3C(=O)N[C@@H](C)C(=O)N[C@H](C(=O)NCC#N)Cc4ccc(OCCN)c(c4)-c4cc3ccc4OCCN)c(C)n2)c(F)c1F (racemic) [Compound 367, rac-(8S,11S,14S)-3,18-bis(2-aminoethoxy)-N-(cyanomethyl)-11-methyl-14-[methyl-[rac-(2S)-4-amino-2-[[6-(4-butoxy-2,3,5,6-tetrafluoro-phenyl)-2,4-dimethyl-pyridine-3-carbonyl]amino]butanoyl]amino]-10,13-dioxo-9,12-diazatricyclo[13.3.1.12,6]icosa-1(18),2(20),3,5,15(19),16-hexaene-8-carboxamide]	0.5 µM
Cc1cc(-c2ccc(C(C)(C)C)cc2)cc(N)c1C(=O)N[C@@H](CCN)C(=O)N(C)[C@@H]1C(=O)N[C@@H](C)C(=O)N[C@H](C(=O)NCC#N)Cc2ccc(OCCN)c(c2)-c2cc1ccc2OCCN (racemic) [Compound 373, rac-(8S,11S,14S)-3,18-bis(2-aminoethoxy)-N-(cyanomethyl)-11-methyl-14-[methyl-[rac-(2S)-4-amino-2-[[2-amino-4-(4-tert-butylphenyl)-6-methyl-benzoyl]amino]butanoyl]amino]-10,13-dioxo-9,12-diazatricyclo[13.3.1.12,6]icosa-1(18),2(20),3,5,15(19),16-hexaene-8-carboxamide]	0.13 µM

Same assay, conditions: Escherichia coli, ATCC25922, Table 6, cation adjusted Mueller Hinton Broth + 0.002% Tween-80, 35° C., 22 hours

Structure (SMILES)	MIC
CCCCc1ccc(-c2cc(C)c(C(=O)N[C@@H](CCN)C(=O)N(C)[C@@H]3C(=O)N[C@@H](C)C(=O)N[C@H](C(=O)NCC#N)Cc4ccc(OCCN)c(c4)-c4cc3ccc4OCCN)c(C)n2)nc1 (racemic) [Compound 365, rac-(8S,11S,14S)-3,18-bis(2-aminoethoxy)-N-(cyanomethyl)-11-methyl-14-[methyl-[rac-(2S)-4-amino-2-[[6-(5-butyl-2-pyridyl)-2,4-dimethyl-pyridine-3-carbonyl]amino]butanoyl]amino]-10,13-dioxo-9,12-diazatricyclo[13.3.1.12,6]icosa-1(18),2(20),3,5,15(19),16-hexaene-8-carboxamide]	0.31 µM
Cc1cc(-c2ccc(C(C)(C)C)cc2[N+](=O)[O-])nc(C)c1C(=O)N[C@@H](CCN)C(=O)N(C)[C@@H]1C(=O)N[C@@H](C)C(=O)N[C@H](C(=O)NCC#N)Cc2ccc(OCCN)c(c2)-c2cc1ccc2OCCN (racemic) [Compound 368, rac-(8S,11S,14S)-3,18-bis(2-aminoethoxy)-N-(cyanomethyl)-11-methyl-14-[methyl-[rac-(2S)-4-amino-2-[[6-(4-tert-butyl-2-nitro-phenyl)-2,4-dimethyl-pyridine-3-carbonyl]amino]butanoyl]amino]-10,13-dioxo-9,12-diazatricyclo[13.3.1.12,6]icosa-1(18),2(20),3,5,15(19),16-hexaene-8-carboxamide]	0.5 µM
Cc1c(Oc2ccc(C(C)(C)C)cc2)ccc(C(=O)N[C@@H](CCN)C(=O)N(C)[C@@H]2C(=O)N[C@@H](C)C(=O)N[C@H](C(=O)NCC#N)Cc3ccc(OCCN)c(c3)-c3cc2ccc3OCCN)c1C (racemic) [Compound 374, rac-(8S,11S,14S)-3,18-bis(2-aminoethoxy)-N-(cyanomethyl)-11-methyl-14-[methyl-[rac-(2S)-4-amino-2-[[4-(4-tert-butylphenoxy)-2,3-dimethyl-benzoyl]amino]butanoyl]amino]-10,13-dioxo-9,12-diazatricyclo[13.3.1.12,6]icosa-1(18),2(20),3,5,15(19),16-hexaene-8-carboxamide]	0.25 µM
Cc1c(C(=O)N[C@@H](CCN)C(=O)N(C)[C@@H]2C(=O)N[C@@H](C)C(=O)N[C@H](C(=O)NCC#N)Cc3ccc(OCCN)c(c3)-c3cc2ccc3OCCN)cnn(-c2ccc(C(C)(C)C)cc2)c1=O (racemic) [Compound 387, rac-(8S,11S,14S)-3,18-bis(2-aminoethoxy)-N-(cyanomethyl)-11-methyl-14-[methyl-[rac-(2S)-4-amino-2-[[1-(4-tert-butylphenyl)-5-methyl-6-oxo-pyridazine-4-carbonyl]amino]butanoyl]amino]-10,13-dioxo-9,12-diazatricyclo[13.3.1.12,6]icosa-1(18),2(20),3,5,15(19),16-hexaene-8-carboxamide]	8 µM
C[C@@H]1NC(=O)[C@@H](N(C)C(=O)[C@H](CCN)NC(=O)N2CCC(c3ccc(C(C)(C)C)cc3)CC2)c2ccc(OCCN)c(c2)-c2cc(ccc2OCCN)C[C@@H](C(=O)NCC#N)NC1=O (racemic) [Compound 390, rac-(8S,11S,14S)-3,18-bis(2-aminoethoxy)-N-(cyanomethyl)-11-methyl-14-[methyl-[rac-(2S)-4-amino-2-[[4-(4-tert-butylphenyl)piperidine-1-carbonyl]amino]butanoyl]amino]-10,13-dioxo-9,12-diazatricyclo[13.3.1.12,6]icosa-1(18),2(20),3,5,15(19),16-hexaene-8-carboxamide]	8 µM
C[C@@H]1NC(=O)[C@@H](N(C)C(=O)[C@H](CCN)NC(=O)c2cc([N+](=O)[O-])c(-c3ccc(C(C)(C)C)cc3)nc2N)c2ccc(OCCN)c(c2)-c2cc(ccc2OCCN)C[C@@H](C(=O)NCC#N)NC1=O (racemic) [Compound 415, rac-(8S,11S,14S)-3,18-bis(2-aminoethoxy)-N-(cyanomethyl)-11-methyl-14-[methyl-[rac-(2S)-4-amino-2-[[2-amino-6-(4-tert-butylphenyl)-5-nitro-pyridine-3-carbonyl]amino]butanoyl]amino]-10,13-dioxo-9,12-diazatricyclo[13.3.1.12,6]icosa-1(18),2(20),3,5,15(19),16-hexaene-8-carboxamide]	1.5 µM
CC(C)Cc1ccc(-c2ncc(C(=O)N[C@@H](CCN)C(=O)N(C)[C@@H]3C(=O)N[C@@H](C)C(=O)N[C@H](C(=O)NCC#N)Cc4ccc(OCCN)c(c4)-c4cc3ccc4OCCN)c(C(F)F)n2)cc1 (racemic) [Compound 418, rac-(8S,11S,14S)-3,18-bis(2-aminoethoxy)-N-(cyanomethyl)-11-methyl-14-[methyl-[rac-(2S)-4-amino-2-[[4-(difluoromethyl)-2-(4-isobutylphenyl)pyrimidine-5-carbonyl]amino]butanoyl]amino]-10,13-dioxo-9,12-diazatricyclo[13.3.1.12,6]icosa-1(18),2(20),3,5,15(19),16-hexaene-8-carboxamide]	0.064 µM
C[C@@H]1NC(=O)[C@@H](N(C)C(=O)[C@H](CCN)NC(=O)c2cnc(-c3ccc(C(C)(C)C)cc3)nc2OCC(=O)O)c2ccc(OCCN)c(c2)-c2cc(ccc2OCCN)C[C@@H](C(=O)NCC#N)NC1=O (racemic) [Compound 420, 2-[2-(4-tert-butylphenyl)-5-[[rac-(1S)-3-amino-1-[methyl-[rac-(7S,10S,13S)-3,18-bis(2-aminoethoxy)-13-(cyanomethylcarbamoyl)-10-methyl-8,11-dioxo-9,12-diazatricyclo[13.3.1.12,6]icosa-1(19),2,4,6(20),15,17-hexaen-7-yl]carbamoyl]propyl]carbamoyl]pyrimidin-4-yl]oxyacetic acid]	3 µM
